Reference: US8084457B2, “Pharmaceutically active 4,6-disubstituted aminopyrimidine derivatives as modulators of protein kinases” (Lead Discovery Center GmbH, priority 2003, dated 2011)

What was measured:
CDK9/Cyclin T1 = target: T1, CDK9/Cyclin T1 (Homo sapiens, UniProt P50750); experiment: Kinase assay using CDK9/Cyclin T1; assay type: biochemical; settings: read-out: CDK9 (activity range)
T1 construct: made in house; host or cells: HEK293 cells, recombinant adenovirus
From the text: Cloning of CDK9 and Cyclin T1:
Both cDNA fragments were cloned by PCR into pDONR201 vectors using the gateway recombination system (Invitrogen) according to the manufacturer's recommendations. The fragments were subcloned into a gateway-adapted shuttle vector (pPM7) for production of recombinant adenovirus. All plasmids were verified by restriction digests and sequencing analysis.
Expression and Purification of CDK9/Cyclin T1 Proteins:
Expression and purification was in principle performed as described by Cotten et al. (M. Cotten et al., Nucleic acids research, 2003, 31(28), 128).
Kinase Assay Using CDK9/Cyclin T1:
Kinase assays were performed in principle as described by Cotten et al. (M. Cotten et al., Nucleic acids research, 2003, 31(28), 128).

CDK2/CyclinA = target: T2, CDK2/CyclinA (Homo sapiens, UniProt P24941); experiment: Kinase assay determining CDK2/CyclinA activity; assay type: biochemical; settings: read-out: CDK2 (activity range)
T2 construct: purchased Proqinase
Procedure: Kinase Assays Determining CDK2/CyclinA and CDK5/p35 Activity:
Kinase assays were performed as described by the manufacturers recommendations (Proqinase for CDK2/CyclinA and Upsate for CDK5/p35).

T1 sequence (P50750 whole entry): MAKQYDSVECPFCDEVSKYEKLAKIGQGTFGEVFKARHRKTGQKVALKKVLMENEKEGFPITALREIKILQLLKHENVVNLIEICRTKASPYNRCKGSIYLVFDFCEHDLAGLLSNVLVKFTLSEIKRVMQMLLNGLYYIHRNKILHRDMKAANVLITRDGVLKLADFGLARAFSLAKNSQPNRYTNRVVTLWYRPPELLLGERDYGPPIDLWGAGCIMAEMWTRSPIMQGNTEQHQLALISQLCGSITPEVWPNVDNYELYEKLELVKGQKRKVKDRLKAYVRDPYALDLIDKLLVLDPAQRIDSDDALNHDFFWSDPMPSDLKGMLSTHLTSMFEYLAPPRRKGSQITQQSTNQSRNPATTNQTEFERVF
T1 sequence (O60563 whole entry partner): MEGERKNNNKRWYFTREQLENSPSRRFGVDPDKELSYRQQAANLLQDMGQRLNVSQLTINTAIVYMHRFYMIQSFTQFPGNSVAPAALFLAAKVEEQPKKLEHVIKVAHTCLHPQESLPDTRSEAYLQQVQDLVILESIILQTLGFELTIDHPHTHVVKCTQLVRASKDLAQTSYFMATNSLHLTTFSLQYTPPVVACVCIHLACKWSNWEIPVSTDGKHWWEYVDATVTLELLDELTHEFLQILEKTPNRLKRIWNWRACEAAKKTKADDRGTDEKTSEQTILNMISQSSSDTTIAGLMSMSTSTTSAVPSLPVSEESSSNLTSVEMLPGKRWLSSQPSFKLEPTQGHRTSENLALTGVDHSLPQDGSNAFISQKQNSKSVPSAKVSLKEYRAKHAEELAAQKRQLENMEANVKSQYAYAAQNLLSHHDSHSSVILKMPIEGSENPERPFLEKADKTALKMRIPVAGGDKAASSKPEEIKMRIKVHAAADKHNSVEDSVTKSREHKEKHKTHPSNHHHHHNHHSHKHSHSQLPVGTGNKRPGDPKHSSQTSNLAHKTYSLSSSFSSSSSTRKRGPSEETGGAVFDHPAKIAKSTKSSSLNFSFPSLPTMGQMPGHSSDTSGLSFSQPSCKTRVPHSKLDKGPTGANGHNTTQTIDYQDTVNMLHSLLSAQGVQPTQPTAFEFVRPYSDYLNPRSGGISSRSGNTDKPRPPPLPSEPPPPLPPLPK

Row | Compound | IC50 (CDK9/Cyclin T1) [µM] | IC50 (CDK2/CyclinA) [µM]
1 | COC(=O)c1cccc(-c2cc(Nc3ccc(C(=O)N[C@@H]4CCCC[C@H]4N)cc3)ncn2)c1 (racemic) [(201)] | 1 to 10 | 
2 | COC(=O)CN(c1ccc(Nc2cc(-c3ccc(O)cc3)ncn2)cc1)S(=O)(=O)c1ccc(C)cc1 [(27)] | 1 to 10 | 0.001 to 1
3 | COc1ccccc1-c1cc(Nc2ccc(NC(=O)CC3CCCCN3C(=O)OC(C)(C)C)cc2)ncn1 (stereo not shown) [(48)] | 1 to 10 | 1 to 10
4 | Cc1ccc(Nc2cc(-c3cncnc3)ncn2)cc1NS(C)(=O)=O [(110)] | 1 to 10 | 1 to 10
5 | Nc1ccc(C(=O)Nc2ccc(Nc3cc(Cl)ncn3)cc2)cc1 [(25)] | 10 to 250 | 10 to 250
6 | COc1ccccc1-c1cc(Nc2ccc(NC(=O)C(N)c3ccc4ccccc4c3)cc2)ncn1 (stereo not shown) [(146)] | 0.001 to 1 | 1 to 10
7 | COc1ccccc1-c1ncnc(Nc2ccc(NC(=O)c3ccc(N)cc3)cc2)c1C [(149)] | 10 to 250 | 
8 | COc1ccccc1-c1cc(Nc2ccc(NC(=O)c3n[nH]c4ccccc34)cc2)ncn1 [(141)] | 1 to 10 | 
9 | COc1ccccc1-c1cc(Nc2ccc(NC(=O)Nc3ccc4c(c3)OCO4)cc2)ncn1 [(111)] |  | 10 to 250
10 | COc1ccc(-c2cc(Nc3ccc(NC(=O)[C@@H]4CCCCN4)cc3)ncn2)cn1 [(172)] | 1 to 10 | 
11 | CN(C)Cc1cccc(-c2cc(Nc3ccc(NC(=O)[C@@H]4CCCCN4)cc3)ncn2)c1 [(211)] | 1 to 10 | 
12 | N#Cc1cccc(-c2cc(Nc3ccc(C(=O)NC4CCCCC4N)cc3)ncn2)c1 (stereo not shown) [(209)] | 1 to 10 | 
13 | COc1ccc(-c2ncnc(Nc3ccc(NC(=O)c4ccc(N)cc4)cc3)c2C)cc1 [(200)] | 10 to 250 | 
14 | O=C(Nc1ccc(Nc2cc(-c3ccccc3CO)ncn2)cc1)[C@@H]1CCCCN1 [(170)] | 1 to 10 | 
15 | CC(C)(C)C(=O)Nc1ccc(Nc2cc(-c3ccccc3-c3ccccc3)ncn2)cc1 [(132)] | 10 to 250 | 
16 | N[C@@H]1CCCC[C@H]1NC(=O)c1ccc(Nc2cc(-c3cccc(O)c3)ncn2)cc1 (racemic) [(194)] | 1 to 10 | 
17 | Cc1ccc(Nc2cc(-c3ccccc3CO)ncn2)cc1NS(C)(=O)=O [(166)] | 1 to 10 | 
18 | COCc1ccccc1-c1cc(Nc2ccc(C)c(NS(C)(=O)=O)c2)ncn1 [(197)] | 1 to 10 | 
19 | CC(=O)c1ccc(-c2cc(Nc3ccc(NC(=O)[C@@H]4CCCCN4)cc3)ncn2)s1 [(191)] | 1 to 10 | 

Row | Compound | IC50 (CDK9/Cyclin T1) [µM] | IC50 (CDK2/CyclinA) [µM]
20 | COc1ccccc1-c1cc(Nc2ccc(N)cc2)nc(C)n1 [(204)] | 10 to 250 | 
21 | CCCS(=O)(=O)Nc1ccc(Nc2ncnc(-c3ccccc3OC)c2C)cc1 [(160)] | 10 to 250 | 
22 | O=C(Nc1ccc(Nc2cc(-c3ccc(OCc4ccccc4)cc3)ncn2)cc1)[C@@H]1CCCCN1 [(173)] | 10 to 250 | 
23 | CN1CCN(c2cc(Nc3ccc(NC(=O)C(C)(C)C)cc3)ncn2)CC1 [(78)] |  | 10 to 250
24 | CC(=O)c1cccc(-c2cc(Nc3ccc(NC(=O)[C@@H]4CCCCN4)cc3)ncn2)c1 [(179)] | 10 to 250 | 
25 | CC(=O)Nc1cccc(-c2cc(Nc3ccc(C(=O)NC4CCCCC4N)cc3)ncn2)c1 (stereo not shown) [(207)] | 1 to 10 | 
26 | O=C(NC1CCCC1)c1ccc(-c2cc(Nc3ccc(NC(=O)[C@@H]4CCCCN4)cc3)ncn2)cc1 [(180)] | 1 to 10 | 
27 | CC(=O)Nc1ccc(-c2cc(Nc3ccc(NC(=O)[C@@H]4CCCCN4)cc3)ncn2)cc1 [(177)] | 1 to 10 | 
28 | CN(C)c1cccc(-c2cc(Nc3ccc(NC(=O)[C@@H]4CCCCN4)cc3)ncn2)c1 [(169)] | 1 to 10 | 
29 | NC1CCCCC1NC(=O)c1ccc(Nc2cc(-c3ccc(OCc4ccccc4)cc3)ncn2)cc1 (stereo not shown) [(208)] | 10 to 250 | 
30 | CS(=O)(=O)Nc1cccc(-c2cc(Nc3ccc(NC(=O)[C@@H]4CCCCN4)cc3)ncn2)c1 [(178)] | 0.001 to 1 | 
31 | Cc1ccc(Nc2cc(-c3ccc(CO)cc3)ncn2)cc1NS(C)(=O)=O [(175)] | 1 to 10 | 
32 | COc1ccc(-c2cc(Nc3ccc(NC(=O)[C@@H]4CCCCN4)cc3)ncn2)cc1 [(167)] | 1 to 10 | 
33 | CC(C)(C)C(=O)Nc1ccc(Nc2cc(-c3cccnc3)ncn2)cc1 [(73)] |  | 10 to 250
34 | CC(C)(C)C(=O)Nc1ccc(Nc2cc(Cl)ncn2)cc1 [(72)] |  | 10 to 250
35 | Nc1cccc(-c2cc(Nc3ccc(C(=O)NC4CCCCC4N)cc3)ncn2)c1 (stereo not shown) [(206)] | 1 to 10 | 
36 | COCc1ccccc1-c1cc(Nc2ccc(C(=O)NC3CCCCC3N)cc2)ncn1 (stereo not shown) [(210)] | 1 to 10 | 
37 | COc1ccc(-c2cc(Nc3ccc(N)cc3)nc(C)n2)cc1 [(205)] | 10 to 250 | 
38 | COc1ccccc1-c1cc(Nc2ccc(NC(=O)c3cc4ccccc4oc3=O)cc2)ncn1 [(129)] | 10 to 250 | 
